What all share (format): cell-based, mouse
Test [1] concerns Hedgehog Signaling Pathway. Nature of the test: SAG-induced differentiation of C3H10T1/2 cells into osteoblastic cells, intracellular alkaline phosphatase activity. To be noted: 1 μM SAG, 5 days, alkaline phosphatase activity (OD405), read-out: IC50 values of compounds that inhibit Hh pathway. A digest of the protocol: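 Mouse C3H10T1/2 cells were induced with SAG and exposed to compound (10 μM to 1 nM) for 5 days at 37 °C. Cells were lysed in 0.2% Triton, and alkaline phosphatase activity was read as OD405 over 30 min at 37 °C in pH 9.8 substrate buffer. IC50 came from a non-linear fit of background-subtracted OD405 against log concentration.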

The subject of test [2] is Hedgehog Signaling Pathway. Nature of the test: SHH-induced differentiation of C3H10T1/2 cells into osteoblastic cells, intracellular alkaline phosphatase activity. To be noted: 10 nM SHH-N, 5 days, alkaline phosphatase activity (OD405), read-out: IC50 values of compounds that inhibit Hh pathway. A digest of the protocol:
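Hedgehog pathway inhibition was taken as loss of SHH-driven osteoblastic differentiation. Test compound (10 nM–10 μM) plus SHH-N (10 nM) was applied to C3H10T1/2 cells for 5 days, then lysate phosphatase turnover was measured as the 30-min OD405 change at 37 °C. IC50 was fitted from activity versus log dose.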

The test system of test [3] is Hedgehog Signaling Pathway. As to the kind of experiment: Gli-Luc reporter gene cell assay in C3H10T1/2/Gli-Luc cells stimulated with Shh. The following applies: 30 nM Shh, luciferase activity (RLU), read-out: IC50 values of compounds that inhibit Hh pathway. The source says:
The Application of Reporter Gene Cell Assay for the Determination of the Inhibitory Activity of N-(3-(1H-benzo[d]imidazol-2-yl)-4-chlorophenyl)-2-methyl-4-((2S,6R)-2,6-dimethylmorpholino) benzamide and Analogs on Hedgehog Signaling Pathway
The binding of Sonic hedgehog (Shh) to its receptor Patched 1 initiates numerous intracellular signal transmission, and leads to the nuclear translocation of Gli and the elevated transcription of Gli target genes. When C3H10T1/2 cells are stably transfected with the Gli-Luc plasmids containing the luciferase gene under the control of Gli response element and stimulated with Shh, the expression of luciferase is elevated. Luciferase activity is indicative of the hedgehog signaling pathway activity. Therefore, the inhibitory activity of compounds on hedgehog signaling pathway can be measured using the luciferase activity when the transfected cells are stimulated with Shh.
The day before experiment, C3H10T1/2/Gli-Luc cells in log phase of growth were seeded into 96 well plate at a density of 20000 cells per well. The cells were maintained in DMEM (Hyclone) supplemented with 10% FBS (Hyclone) and incubated at 37° C. with 5% CO2 overnight. The compounds to be examined were diluted into 7 different concentrations by series of dilutions (⅓ and 1/10), and the eighth point of concentration is the DMSO control. Those solutions were diluted 100-fold in the fresh growth medium. The cells were taken out of the incubator and the medium of cultured cells were removed. Then, each well was added in an orderly manner with 80 μL of fresh growth medium, 20 μL of medium pre-dilution of positive compound and compounds to be tested, as well as 100 μL of growth medium containing 30 nM of Shh. The cells are returned to the incubator, and incubated for 24 hours.
Measurement of luciferase activity: After taking the 96 well plate out of the incubator, the supernatants were discarded and the cells were washed twice with PBS. Thereafter, each well was dispensed with 20 μL of lysis buffer (Promega E1531), and the plate was shaken for 30 min at room temperature. Following transferring 5 μL of cell lysate into 384 well plate (Greiner 781074), adding 25 μL of luciferase reaction buffer (Promega E1501) into each well and mixing the plate, the relative light unit (RLU) was immediately captured by VarioSkan Flash.
The data were analyzed with Prism 5 software (GraphPad). The relative light unit (RLU) was plotted against the log concentration of testing compound, and the obtained plot was fitted with non-linear curve fitting equation to calculate IC50 values. The curve fitting equation is Y (RLU)=Bottom+(Top−Bottom)/(1+10^((X−Log IC50))). X is the logarithm of concentration. Y is the measure of relative light unit (RLU).
The calculated IC50 value is a measurement of the inhibitory activity of compound to Hh pathway.

[4] abbreviates: Mus musculus, C3H 10T1/2, 120 h.

Data on 17 compounds can be found in US10676468B2, “N-(3-heteroarylaryl)-4-arylarylcarboxamides and analogs as hedgehog pathway inhibitors and use thereof” (IMPACT Therapeutics, Inc., priority 2012, dated 2020).

Where a name gives a salt, the structure may show the parent alone.

In the case of `Cc1cc(C(=O)Nc2ccc(Cl)c(-c3nc4ccccc4[nH]3)c2)ccc1-c1ccc(C(F)(F)F)cc1` [Example 14, N-(3-(1H-benzo[d]imidazol-2-yl)-4-chlorophenyl)-2-methyl-4′-(trifluoromethyl)biphenyl-4-carboxamide], the IC50 (usually the concentration that gives 50% inhibition) in test [1] (setting [4]) was 80 nM; in test [2] (setting [4]) it was 5.5 nM; in test [3] (Mus musculus, C3H 10T1/2, 24 h) it was 9.5 nM.
For `C[C@@H]1CN(c2ccc(C(=O)Nc3ccc(Cl)c(-c4nc5ccccc5[nH]4)c3)c(Cl)c2)C[C@H](C)N1C` [Example 94, N-(3-(1H-benzo[d]imidazol-2-yl)-4-chlorophenyl)-2-chloro-4-((3S,5R)-3,4,5-trimethylpiperazin-1-yl)benzamide], the IC50 turned out to be 16 nM in test [1] (setting [4]); 0.81 nM in test [2] (setting [4]); 0.63 nM in test [3] (Mus musculus, C3H 10T1/2, 24 h).
Taken in the same sequence, the figures for `C[C@@H]1CN(c2ccc(C(=O)Nc3ccc(Cl)c(-c4ncc(-c5ccco5)[nH]4)c3)c(Cl)c2)C[C@H](C)N1C` [Example 144, N-(3-(5-(furan-2-yl)-1H-imidazol-2-yl)-4-chlorophenyl)-2-chloro-4-((3S,5R)-3,4,5-trimethylpiperazin-1-yl)benzamide] were 17 nM, 0.82 nM and 0.15 nM.
Take `C[C@@H]1CN(c2ccc(C(=O)Nc3ccc(Cl)c(-c4nc5ccccc5[nH]4)c3)c(F)c2)C[C@H](C)N1C` [Example 95, N-(3-(1H-benzo[d]imidazol-2-yl)-4-chlorophenyl)-2-fluoro-4-((3S,5R)-3,4,5-trimethylpiperazin-1-yl)benzamide]: the IC50 stood at 111 nM in test [1] (setting [4]); 13 nM in test [2] (setting [4]); 3.3 nM in test [3] (Mus musculus, C3H 10T1/2, 24 h).
Regarding `C[C@@H]1CN(c2ccc(C(=O)Nc3ccc(Cl)c(-c4nc5ccccc5[nH]4)c3)cc2Cl)C[C@H](C)N1C` [Example 133, N-(3-(1H-benzo[d]imidazol-2-yl)-4-chlorophenyl)-3-chloro-4-((3S,5R)-3,4,5-trimethylpiperazin-1-yl)benzamide Dihydrochloride], the IC50 in test [1] (Dihydrochloride) came out at 54 nM; in test [2] (Dihydrochloride) it was 6.3 nM; in test [3] (24 hours, Dihydrochloride) it was 1.6 nM.
Take `C[C@@H]1CN(c2ccc(C(=O)Nc3ccc(Cl)c(-c4nc5ccc(Cl)cc5[nH]4)c3)c(Cl)c2)C[C@H](C)N1C` [Example 96, N-(3-(6-chloro-1H-benzo[d]imidazol-2-yl)-4-chlorophenyl)-2-chloro-4-((3S,5R)-3,4,5-trimethylpiperazin-1-yl)benzamide]: the IC50 in test [1] (setting [4]) was 106 nM; in test [2] (setting [4]), 5 nM; in test [3] (Mus musculus, C3H 10T1/2, 24 h), 3.3 nM.
On to `Cc1c(C(=O)Nc2ccc(Cl)c(-c3ncc(-c4ccco4)[nH]3)c2)ccc(N2C[C@@H](C)N(C)[C@@H](C)C2)c1F` [Example 148, N-(3-(5-(furan-2-yl)-1H-imidazol-2-yl)-4-chlorophenyl)-2-methyl-3-fluoro-4-((3S,5R)-3,4,5-trimethylpiperazin-1-yl)benzamide], for which the IC50 in test [1] (setting [4]) stood at 15 nM; in test [2] (setting [4]), 0.33 nM; in test [3] (Mus musculus, C3H 10T1/2, 24 h) it was 0.26 nM.
`Cc1c(C(=O)Nc2ccc(Cl)c(-c3ncc(-c4ccsc4)[nH]3)c2)ccc(N2C[C@@H](C)N(C)[C@@H](C)C2)c1F` [Example 141, N-(3-(5-(thiophen-3-yl)-1H-imidazol-2-yl)-4-chlorophenyl)-2-methyl-3-fluoro-4-((3S,5R)-3,4,5-trimethylpiperazin-1-yl)benzamide]: the IC50 in test [1] (setting [4]) amounted to 9.4 nM; in test [2] (setting [4]) it was 0.24 nM; in test [3] (Mus musculus, C3H 10T1/2, 24 h), 0.35 nM.
With `C[C@@H]1CN(c2ccc(C(=O)Nc3cnc(Cl)c(-c4nc5ccc(F)cc5[nH]4)c3)c(Cl)c2)C[C@H](C)N1C` [Example 129, N-(5-(6-fluoro-1H-benzo[d]imidazol-2-yl)-6-chloropyridin-3-yl)-2-chloro-4-((3S,5R)-3,4,5-trimethylpiperazin-1-yl)benzamide], the IC50 in test [1] (setting [4]) stood at 82 nM; in test [2] (setting [4]) it was 7.5 nM; in test [3] (Mus musculus, C3H 10T1/2, 24 h), 4 nM.
For `Cc1cc(-c2ccc(C(F)(F)F)cc2)ccc1C(=O)Nc1ccc(Cl)c(-c2ncc(-c3ccc(F)cc3)[nH]2)c1` [Example 78, N-(3-(5-(4-fluorophenyl)-1H-imidazol-2-yl)-4-chlorophenyl)-3-methyl-4′-(trifluoromethyl)biphenyl-4-carboxamide], the concentration for half-maximal inhibition (IC50) in test [1] (setting [4]) stood at 166 nM; in test [2] (setting [4]) it was 4.8 nM; in test [3] (Mus musculus, C3H 10T1/2, 24 h) it was 15 nM.
Taken in the same sequence, the figures for `C[C@@H]1CN(c2ccc(C(=O)Nc3ccc(Cl)c(-c4ncc(C5CC5)[nH]4)c3)c(Cl)c2)C[C@H](C)N1C` [Example 176, N-(3-(5-cyclopropyl-1H-imidazol-2-yl)-4-chlorophenyl)-2-chloro-4-((3S,5R)-3,4,5-trimethylpiperazin-1-yl)benzamide] were 7.2 nM, 3.9 nM and 0.97 nM.
For `C[C@@H]1CN(c2ccc(C(=O)Nc3ccc(Cl)c(-c4nc5ccccc5[nH]4)c3)cc2Cl)C[C@H](C)N1C` [Example 120, N-(3-(1H-benzo[d]imidazol-2-yl)-4-chlorophenyl)-3-chloro-4-((3S,5R)-3,4,5-trimethylpiperazin-1-yl)benzamide], the IC50 in test [1] (setting [4]) was 57 nM; in test [2] (setting [4]), 7.4 nM; in test [3] (Mus musculus, C3H 10T1/2, 24 h), 1.7 nM.
The corresponding values for `Cc1cc(N2C[C@@H](C)N(C)[C@@H](C)C2)ncc1C(=O)Nc1ccc(Cl)c(-c2nc3ccccc3[nH]2)c1` [Example 107, N-(3-(1H-benzo[d]imidazol-2-yl)-4-chlorophenyl)-4-methyl-6-((3S,5R)-3,4,5-trimethylpiperazin-1-yl)nicotinamide] are 47 nM, 2.3 nM and 0.75 nM.
Regarding `C[C@@H]1CN(c2ccc(C(=O)Nc3ccc(Cl)c(-c4nc5ccc(F)cc5[nH]4)c3)c(Cl)c2)C[C@H](C)N1C` [Example 131, N-(3-(6-fluoro-1H-benzo[d]imidazol-2-yl)-4-chlorophenyl)-2-chloro-4-((3S,5R)-3,4,5-trimethylpiperazin-1-yl)benzamide Dihydrochloride], the IC50 amounted to 7.2 nM in test [2] (Dihydrochloride) and 1.2 nM in test [3] (24 hours, Dihydrochloride).
As for `Cc1cc(N2C[C@@H](C)N(C)[C@@H](C)C2)ccc1C(=O)Nc1ccc(Cl)c(-c2ncc[nH]2)c1` [Example 166, N-(3-(1H-imidazol-2-yl)-4-chlorophenyl)-2-methyl-4-((3S,5R)-3,4,5-trimethylpiperazin-1-yl)benzamide], the IC50 in test [1] (setting [4]) was found to be 347 nM; in test [2] (setting [4]), 47 nM; in test [3] (Mus musculus, C3H 10T1/2, 24 h), 11 nM.
As to `CCc1cnc(-c2cc(NC(=O)c3ccc(N4C[C@@H](C)N(CC)[C@@H](C)C4)cc3Cl)ccc2Cl)[nH]1` [Example 169, N-(3-(5-ethyl-1H-imidazol-2-yl)-4-chlorophenyl)-2-chloro-4-((3S,5R)-4-ethyl-3,5-dimethylpiperazin-1-yl)benzamide], the IC50 in test [3] (Mus musculus, C3H 10T1/2, 24 h) was determined as 0.67 nM.
For the compound `CCN1[C@H](C)CN(c2ccc(C(=O)Nc3ccc(Cl)c(-c4ncc(C(C)C)[nH]4)c3)c(Cl)c2)C[C@@H]1C` [Example 192, N-(3-(5-isopropyl-1H-imidazol-2-yl)-4-chlorophenyl)-2-chloro-4-((3S,5R)-4-ethyl-3,5-dimethylpiperazin-1-yl)benzamide Dihydrochloride], the IC50 in test [3] (Mus musculus, C3H 10T1/2, 24 h) was 0.52 nM.
